Test results: patent US10787490B2, “Peptide inhibitors of interleukin-23 receptor and their use to treat inflammatory diseases” (Protagonist Therapeutics, Inc., priority 2015, dated 2020)
Where two headings read alike, the source gives them in different places. Where a SMILES comes first, the peptide text is derived from it. Bridges are numbered along the chain shown (N, C = ends). [ ]: non-standard residue; d: D form. 2Nal = N[C@@H](Cc1ccc2ccccc2c1)C(=O)O; AEF = NCCOc1ccc(C[C@H](N)C(=O)O)cc1; Pen = CC(C)(S)[C@H](N)C(=O)O; Thp = NC1(C(=O)O)CCOCC1

Experiments:
[1] = DTT stability assay (redox stability); assay type: in vitro ADME; settings: half-life, 0.5 mM DTT, room temperature, numeric
[2] = biological target: human IL-23R (IL23R_huFC) (Homo sapiens, UniProt Q5VWK5); settings: read-out: ELISA IL23R/IL23 in nMoles (IC50); non-cyclic peptides
Sequence of human IL-23R (IL23R_huFC) (Q5VWK5 24-354 limits assumed, looked up): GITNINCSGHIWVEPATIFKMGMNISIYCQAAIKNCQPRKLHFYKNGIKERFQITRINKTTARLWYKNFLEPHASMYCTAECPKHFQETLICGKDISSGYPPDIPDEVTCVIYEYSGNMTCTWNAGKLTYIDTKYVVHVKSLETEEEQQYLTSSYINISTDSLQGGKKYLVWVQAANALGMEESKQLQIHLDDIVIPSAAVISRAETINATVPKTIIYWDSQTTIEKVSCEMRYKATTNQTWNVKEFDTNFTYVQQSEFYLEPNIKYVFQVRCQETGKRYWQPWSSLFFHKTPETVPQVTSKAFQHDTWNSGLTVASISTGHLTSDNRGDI

[3] = test system: IL-23R in human DB cells; experiment: Schild analysis, Human DB Cell (pSTAT3); assay type: cell-based; settings: 0.3-100 nM peptide
[4] = test system: Cyno IL-23R; assay type: binding
[5] = test system: DSS-induced colitis, Sprague Dawley rats; experiment: Rat Colitis Model: 9 Days of 3% DSS-Containing Drinking Water; assay type: in vivo; settings: 100 mg/kg PO, QD
[6] = test system: distal colon tissue of TNBS-exposed rats; experiment: Biomarkers in distal colon of TNBS rats (ELISA); assay type: in vivo, rat; settings: vs vehicle treated controls
Procedure: Levels of inflammatory markers were examined in the colons. The distal colon tissue samples, designated for protein expression analysis, were flash frozen after collection. For protein extraction, the samples were thawed, weighed and homogenized in the extraction buffer (PBS pH 7.2 supplemented with Protease Inhibitors, 3× volume:weight). The homogenates were centrifuged at 13 krpm at 4° C. for 15 minutes, a total of two times to remove the debris. The supernatants were saved in multiple aliquots in −80° C. and subsequently used for protein expression analysis on ELISA. The total protein in each sample was quantified using BCA assay.

[7] = Stability in simulated gastric fluid (SGF); assay type: in vitro ADME; settings: pig, simulated gastric fluid (SGF) with porcine pepsin, pH 2
[8] = Stability in simulated intestinal fluid (SIF); assay type: in vitro ADME; set-up: dose or concentration left out as unconfirmed; settings: simulated intestinal fluid (SIF) with pancreatin, pH 6.8; read-out: Stability (t1/2, hr) SIF (converted)
[9] = test system: TNBS-induced acute colitis, Sprague-Dawley rats; experiment: TNBS induced colitis in rat; assay type: in vivo
[10] = test system: rat splenocytes; experiment: Rat Splenocyte Assay (IL-17A); assay type: cell-based; settings: IL-17A produced by activated splenocytes exposed to IL-23; read-out: Cell assay (nM) Rat (Spleen), IC50
Procedure: A new assay developed was the rat splenocyte assay.
Briefly, splenocytes freshly isolated from rat were seeded in 96-well tissue culture plates in complete medium containing IL-10. […] Changes in IL-17A levels in the supernatants were detected using an ELISA.

[11] = read-out: Cross Reactivity (nM) ELISA cyno IL23R IL23

CC(=O)NC1CCSCC(C(=O)NC(Cc2ccc(OCCN)cc2)C(=O)NC(Cc2ccc3ccccc3c2)C(=O)NC2(C(=O)NC(CCC(=O)O)C(=O)NC(CC(N)=O)C(=O)NC(CC(N)=O)C(N)=O)CCOCC2)NC(=O)C(CCC(N)=O)NC(=O)C(Cc2c[nH]c3ccccc23)NC(=O)C(C(C)O)NC(=O)C(CCC(N)=O)NC1=O (stereo not shown) [SEQ ID NO: 1290, Ac-cyclo[[Abu]-QTWQC]-[Phe[4-(2-aminoethoxy)]-[2-Nal]-[4-amino-4-carboxy-tetrahydropyran]-ENN-NH2]
DTT Stability [1]: >120 min | IC50 [2]: > 100 µM

CC(=O)NCCCC[C@H](NC(=O)C1(NC(=O)[C@H](Cc2ccc3ccccc3c2)NC(=O)[C@H](Cc2ccc(OCCN)cc2)NC(=O)[C@H]2NC(=O)[C@H](CCC(N)=O)NC(=O)[C@H](Cc3c[nH]c4ccccc34)NC(=O)[C@H]([C@@H](C)O)NC(=O)[C@H](CC(N)=O)NC(=O)[C@@H](NC(C)=O)C(C)(C)SSC2(C)C)CCOCC1)C(=O)N[C@@H](CC(N)=O)C(=O)N[C@@H](CC(N)=O)C(=O)N[C@@H](CC(N)=O)C(N)=O [SEQ ID NO: 1211, Ac-[Pen]-NTWQ-[Pen]-[Phe[4-(2-aminoethoxy)]-[2-Nal]-[4-amino-4-carboxy-tetrahydropyran]-[Lys(Ac)]-NNN-NH2] (Ac-[Pen]NTWQ[Pen][AEF][2Nal][Thp]K(Ac)NNN-NH2; disulfide 1-6)
Schild slope [3]: 0.76

H-CSNWVCYWHTYG-NH2 (cysteine pairing not given here) [SEQ ID NO: 198]
IC50 [4, 11]: < 250 nM

O=C(O)c1cc(/N=N/c2ccc(S(=O)(=O)Nc3ccccn3)cc2)ccc1O [sulfasalazine]
terminal ratio of colon weight:colon length ([5]; difference vs DSS alone): significant | disease score (DAI) ([5]; from Day 5, vs DSS alone): attenuated

CC(=O)N[C@@H]1CCSC[C@@H](C(=O)N[C@@H](Cc2ccc(OCCN)cc2)C(=O)N[C@@H](Cc2ccc3ccccc3c2)C(=O)NC2(C(=O)N[C@@H](CCC(=O)O)C(=O)N[C@@H](CC(N)=O)C(=O)N[C@@H](CC(N)=O)C(N)=O)CCOCC2)NC(=O)[C@H](CCC(N)=O)NC(=O)[C@H](Cc2c[nH]c3ccccc23)NC(=O)[C@H]([C@@H](C)O)NC(=O)[C@@H](CCC(N)=O)NC1=O [SEQ ID NO: 980]
IL-22 level in colon [6]: reduced | MPO level in colon [6]: reduced | half-life at 20 μM [7]: 600 min | half-life [8]: 11 h | colon macroscopic score ([9]; Example 14, vs vehicle): significantly reduced | sum of the histopathology score ([9]; Example 14, vs vehicle): significantly reduced | weight loss ([9]; Example 14, 37 mg/kg/day oral): prevented

Hy-CADWVCYWHTFG-NH2 [SEQ ID NO: 169]
IC50 [4, 11]: 1000 to 10000 nM

Ac-[Pen]-NTWQ-[Pen]-[Phe[4-(2-aminoethoxy)]-[2-Nal]-[4-amino-4-carboxy-tetrahydropyran]-[Lys(Ac)]—NN—NH2 [SEQ ID NO: 1185]
IC50 ([4]; IL-23/IL-23R competitive binding, cyno, read-out: ELISA (nM) Cyno, IC50): 3 nM | IC50 [10]: 35 nM | IL-17A level in colon [6]: did not significantly reduce | IL-22 level in colon [6]: did not significantly reduce | MPO level in colon [6]: did not significantly reduce | histopathology scores ([9]; Example 12): did not significantly reduce | colon macroscopic score ([9]; Example 12, vs vehicle): significantly reduced | weight loss ([9]; Example 12, Peptide 1185 37 mg/kg/day PO, anti-IL-23p19 4 mg/kg ip, prednisolone 10 mg/day P.O., vs vehicle): did not significantly prevent
